# Settings: buffer; pH 7.4; 200.0 µM
row,Compound,solubility kinetic [µg/mL]
1,NS(=O)(=O)c1ccc(CCNC(=O)Cc2ccc(Cl)cc2)cc1,> 52.9
2,CCCNC(=O)N1CCC(c2nc3ccccc3s2)CC1,> 45.5
3,S=C(NCc1ccc2c(c1)OCO2)NCc1ccco1,> 43.6
4,CC(C)CCNC(=O)C1CC(=O)N(CCc2ccccc2)C1 (centres undefined),> 45.4
5,COc1cccc(C(=O)OCC(=O)NCCC2=CCCCC2)c1,25.8
6,CC12CCC(=O)N1C(C(=O)Nc1ccc(F)cc1)CS2 (centres undefined),> 44.2
7,Cc1ccc(-c2cc(-c3ccco3)c(C#N)c(=O)[nH]2)cc1,2.6
8,O=C(/C=C/c1ccco1)NCC1COc2ccccc2O1 (centres undefined),> 42.8
9,O=C(NCCc1ccccc1F)C1CC(=O)N(c2ccccc2)C1 (centres undefined),47.8
10,N#Cc1ccsc1NC(=O)CN1CCOCC1,28.6
11,CC1(C)OC2C(O1)[C@@H](CO)O[C@H]2n1cnc2c(N)ncnc21 (some centres undefined),> 46.1
12,CNC(=S)NCCCc1ccccc1,> 31.2
13,COC(=O)c1ccc2nc(NC(=O)C3CC3)sc2c1,4.1
14,COc1ccccc1-c1nnc(SCC(=O)NC2CCCCC2)n1N,> 54.2
15,CC(C)(CCl)C(=O)Nc1ccnc(-c2ccncc2)n1,6
16,CN(C)c1ncnc(N(C)C)c1[N+](=O)[O-],> 31.7
17,O=C(CSc1nnc(C2CC2)n1C1CC1)c1cccs1,> 45.8
18,CN(C(=O)c1cccc(NC(=O)Cc2ccccc2)c1)c1ccccc1,> 51.7
19,CN(c1ccccc1)S(=O)(=O)c1cccc(C(=O)NC2CCCC2)c1,47.3
20,CCCOc1ccc(S(=O)(=O)Nc2ccccn2)c2ccccc12,< 0.4
21,CC12CCC(C/C1=N/O)C2(C)CBr (centres undefined),> 36.9
22,Cc1ccc(C)c(C(C)NC(=O)Cc2cccs2)c1 (centres undefined),> 41
23,NC(=O)C1CCN(C(=O)Nc2csc3ccccc23)CC1,42
24,O=C(O)c1cc(Cl)c(Cl)cc1C(=O)NCc1ccco1,> 47.1
25,COc1ccccc1C(=O)NCCCNC(=O)c1cnccn1,36.6
26,Cc1cc(NC(=O)c2cc(-c3cccc(OCC(C)C)c3)nc3ccccc23)no1,< 0.3
27,Cc1ccc(C)c(C(=O)Nc2ccncc2)c1,> 33.9
28,O=S(=O)(NC1C2CC3CC(C2)CC1C3)c1ccccc1 (centres undefined),23.4

# Next, values leading:
row,solubility kinetic [µg/mL],Compound
1,> 56.3,COc1cc2c(C(=O)NCCN(C)C)cn(CC(C)C)c(=O)c2cc1OC
2,7,Cc1onc(-c2ccccc2)c1C(=O)NCc1ccc(F)cc1
3,1.6,CC(C)c1ccccc1NC(=O)CN1C(=O)c2ccccc2C1=O
4,> 35.3,COC(=O)c1cccc(NC(=O)C(C)(C)C)c1
5,1.7,O=[N+]([O-])c1ccccc1Nc1nc(-c2cccnc2)cs1
6,36.5,O=C(NC12CC3CC(CC(C3)C1)C2)c1ccco1
7,51.2,O=C(c1ccc(NS(=O)(=O)c2cccc(F)c2)cc1)N1CCCC1
8,0.8,COc1cc(=O)[nH]c(SC(C)C(=O)Nc2ccc3ccccc3c2)n1 (centres undefined)
9,> 51.7,CCS(=O)(=O)c1c(S(=O)(=O)CC)c2ccccn2c1C(N)=O
10,52,Cc1ccc(S(=O)(=O)N2CCCCC2)cc1C(=O)NCc1ccccn1
11,> 32.7,O=C(NCc1ccccn1)C1CCCCC1
12,> 50.5,CC(=O)Nc1ccc(NC(=O)COc2ncnc3ccccc23)cc1
13,31.3,C/C(=C\C(=O)c1cccnc1)Nc1ccc(C(=O)O)cc1
14,1.6,CCCCCCC(=O)Nc1ccc(Br)cn1
15,28.2,N/C(=N\OC(=O)/C=C/c1ccccc1Cl)c1ccncc1
16,> 31.2,Cc1oncc1C(=O)NC1CCCCC1
17,> 39.9,CCCn1c(=O)c2c(nc3n2CCS3)n(C)c1=O
18,9.2,O=C(Nc1nc(-c2ccc(Cl)s2)cs1)c1ccco1
19,16.2,COc1ccccc1NC(=O)CN1C(=O)COc2ccc(C)cc21
20,13.4,Cc1cccc(OCC(=O)Nc2ccccc2F)c1
21,> 27.3,CCn1cc(CCC(=O)O)c(C)n1

# — PubChem BioAssay AID1996
